Source: patent publication US12064426B2, “Selective inhibitors of ROCK1 and ROCK2 protein kinases and uses thereof” (GENOSCO Inc., priority 2021, dated 2024)

Tests used:
[1] = biological target: T1, Recombinant ROCK1 (amino acids 1-477) (Homo sapiens, UniProt Q13464); test: ROCK inhibition assay, LANCE Ultra TR-FRET kinase assay (ROCK1); type: biochemical; conditions: 1 μM ATP, 50 nM ULight-CREBtide substrate
T1 construct: Recombinant ROCK1 (amino acids 1-477); by word order, ROCK1 from Carna Biosciences
T1 sequence (Q13464 1-477): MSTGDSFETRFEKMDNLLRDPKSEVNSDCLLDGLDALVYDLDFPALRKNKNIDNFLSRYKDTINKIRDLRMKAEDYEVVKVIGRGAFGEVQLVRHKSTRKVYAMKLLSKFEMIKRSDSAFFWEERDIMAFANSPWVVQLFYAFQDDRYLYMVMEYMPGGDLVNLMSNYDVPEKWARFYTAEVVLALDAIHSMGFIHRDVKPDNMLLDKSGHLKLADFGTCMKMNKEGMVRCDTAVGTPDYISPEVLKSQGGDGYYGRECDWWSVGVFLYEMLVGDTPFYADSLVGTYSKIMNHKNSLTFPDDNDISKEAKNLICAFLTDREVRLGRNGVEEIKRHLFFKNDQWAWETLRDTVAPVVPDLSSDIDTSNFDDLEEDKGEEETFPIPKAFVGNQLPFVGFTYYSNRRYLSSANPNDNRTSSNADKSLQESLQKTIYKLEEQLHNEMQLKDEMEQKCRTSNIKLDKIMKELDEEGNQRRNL
In short: (§1)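 LANCE Ultra TR-FRET kinase assay with recombinant ROCK1 (aa 1-477) or ROCK2 (aa 5-554), 50 nM ULight-CREBtide and ATP at 1 μM (ROCK1) or 4 μM (ROCK2) in HEPES pH 7.5 with MgCl2, 1 h at room temperature. EDTA stop with Eu anti-phospho-CREB Ser133 antibody; 665/615 nm read gives IC50.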

[2] = biological target: T2, Recombinant ROCK2 (amino acids 5-554) (Homo sapiens, UniProt O75116); test: ROCK inhibition assay, LANCE Ultra TR-FRET kinase assay (ROCK2); type: biochemical; conditions: 4 μM ATP, 50 nM ULight-CREBtide substrate
T2 construct: ROCK2 (amino acids 5-554); by word order, ROCK2 from SignalChem
T2 sequence (O75116 5-554): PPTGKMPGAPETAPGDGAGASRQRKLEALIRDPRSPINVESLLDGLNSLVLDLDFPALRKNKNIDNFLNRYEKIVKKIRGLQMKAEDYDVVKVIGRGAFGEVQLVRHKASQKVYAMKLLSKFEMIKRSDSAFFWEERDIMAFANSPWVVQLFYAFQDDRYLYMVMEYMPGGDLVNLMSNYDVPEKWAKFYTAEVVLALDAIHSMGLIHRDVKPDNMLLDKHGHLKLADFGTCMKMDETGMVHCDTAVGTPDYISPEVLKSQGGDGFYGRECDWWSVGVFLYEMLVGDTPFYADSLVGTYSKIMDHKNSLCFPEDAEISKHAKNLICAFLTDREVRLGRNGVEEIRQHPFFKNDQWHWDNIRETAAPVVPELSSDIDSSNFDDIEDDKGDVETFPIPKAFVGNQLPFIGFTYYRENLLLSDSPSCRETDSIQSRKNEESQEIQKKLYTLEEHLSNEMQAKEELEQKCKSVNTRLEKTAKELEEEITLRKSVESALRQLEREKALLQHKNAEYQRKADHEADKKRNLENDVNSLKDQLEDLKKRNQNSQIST
In short: as §1

IC50 [1] [nM]	IC50 [2] [nM]	SMILES
> 501	100 to 500	CNC(=O)c1cccc(Cn2ccc3cc(-c4conc4C)cnc3c2=O)c1 [Compound 243]
101 to 500	10 to 100	CNC(=O)c1cccc(Cn2ccc3cc(-c4ccnc(N)c4)ncc3c2=O)c1 [Compound 244]
101 to 500	10 to 100	CNC(=O)c1cc(F)cc(Cn2ccc3cc(-c4ccnn4C)ncc3c2=O)c1 [Compound 245]
11 to 100	< 10	CNC(=O)c1cc(F)cc(Cn2ccc3cc(-c4cn[nH]c4C(F)(F)F)ncc3c2=O)c1 [Compound 246]
> 501	> 500	CNC(=O)c1cc(F)cc(Cn2ccc3cc(-c4ccoc4C)ncc3c2=O)c1 [Compound 247]
11 to 100	10 to 100	CNC(=O)c1cc(F)cc(Cn2ccc3cc(-c4cn[nH]c4C)ncc3c2=O)c1 [Compound 248]
< 10	< 10	CNC(=O)c1cc(F)cc(Cn2ccc3cc(-c4c[nH]nc4Cl)ncc3c2=O)c1 [Compound 249]
101 to 500	10 to 100	CNC(=O)c1cc(F)cc(Cn2ccc3cc(-c4ccnc(N)c4)ncc3c2=O)c1 [Compound 251]
11 to 100	< 10	CNC(=O)c1cc(F)cc(Cn2ccc3cc(-c4c[nH]nc4C(F)F)ncc3c2=O)c1 [Compound 252]
11 to 100	< 10	Cc1n[nH]cc1-c1cc2ccn(Cc3cc(F)cc(C(=O)NC4CCOCC4)c3)c(=O)c2cn1 [Compound 253]
11 to 100	< 10	CCNC(=O)c1cc(F)cc(Cn2ccc3cc(-c4c[nH]nc4C)ncc3c2=O)c1 [Compound 254]
< 10	< 10	Cc1n[nH]cc1-c1cc2ccn(Cc3cc(F)cc(C(=O)NCC4CCN(C)CC4)c3)c(=O)c2cn1 [Compound 256]
< 10	< 10	CN1CCC(CNC(=O)c2cc(F)cc(Cn3ccc4cc(-c5c[nH]nc5C(F)(F)F)ncc4c3=O)c2)CC1 [Compound 257]
11 to 100	< 10	O=C(NCC1COC1)c1cc(F)cc(Cn2ccc3cc(-c4c[nH]nc4C(F)(F)F)ncc3c2=O)c1 [Compound 258]
11 to 100	< 10	CN1CCC(NC(=O)c2cc(F)cc(Cn3ccc4cc(-c5c[nH]nc5C(F)(F)F)ncc4c3=O)c2)CC1 [Compound 259]
11 to 100	< 10	O=C(N[C@H]1CC[C@H](O)CC1)c1cc(F)cc(Cn2ccc3cc(-c4c[nH]nc4C(F)(F)F)ncc3c2=O)c1 [Compound 260]
< 10	< 10	CN1CCC(NC(=O)c2cc(F)cc(Cn3ccc4cc(-c5c[nH]nc5Cl)ncc4c3=O)c2)CC1 [Compound 261]
< 10	< 10	O=C(N[C@H]1CC[C@@H](O)CC1)c1cc(F)cc(Cn2ccc3cc(-c4c[nH]nc4Cl)ncc3c2=O)c1 [Compound 262]
11 to 100	< 10	O=C(N[C@H]1CC[C@H](O)CC1)c1cc(F)cc(Cn2ccc3cc(-c4c[nH]nc4Cl)ncc3c2=O)c1 [Compound 263]
11 to 100	< 10	CC(C)NC(=O)c1cc(F)cc(Cn2ccc3cc(-c4c[nH]nc4Cl)ncc3c2=O)c1 [Compound 264]
11 to 100	< 10	Cc1nocc1-c1cc2ccn(Cc3cc(F)cc(C(=O)NCC4CCN(C)CC4)c3)c(=O)c2cn1 [Compound 265]

IC50 [1] [nM]	IC50 [2] [nM]	SMILES
11 to 100	< 10	Cc1nocc1-c1cc2ccn(Cc3cc(F)cc(C(=O)NCC4CCOCC4)c3)c(=O)c2cn1 [Compound 266]
11 to 100	< 10	Cc1nocc1-c1cc2ccn(Cc3cc(F)cc(C(=O)NCCN4CCOCC4)c3)c(=O)c2cn1 [Compound 267]
11 to 100	< 10	CN1CCN(CCNC(=O)c2cc(F)cc(Cn3ccc4cc(-c5ccnn5C)ncc4c3=O)c2)CC1 [Compound 268]
101 to 500	10 to 100	Cn1nccc1-c1cc2ccn(Cc3cc(F)cc(C(=O)NCC4COC4)c3)c(=O)c2cn1 [Compound 269]
11 to 100	10 to 100	Cn1nccc1-c1cc2ccn(Cc3cc(F)cc(C(=O)NCC4CCOCC4)c3)c(=O)c2cn1 [Compound 270]
< 10	< 10	Cn1nccc1-c1cc2ccn(Cc3cc(F)cc(C(=O)NCCc4cccnc4)c3)c(=O)c2cn1 [Compound 271]
< 10	< 10	CC(C)NC(=O)c1cc(F)cc(Cn2ccc3cc(-c4c[nH]nc4Br)ncc3c2=O)c1 [Compound 272]
< 10	< 10	CN1CCC(CNC(=O)c2cc(F)cc(Cn3ccc4cc(-c5c[nH]nc5Br)ncc4c3=O)c2)CC1 [Compound 273]
< 10	< 10	CN1CCC(CNC(=O)c2cc(F)cc(Cn3ccc4cc(-c5c[nH]nc5C(F)F)ncc4c3=O)c2)CC1 [Compound 274]
11 to 100	< 10	O=C(N[C@H]1CC[C@@H](O)CC1)c1cc(F)cc(Cn2ccc3cc(-c4c[nH]nc4C(F)F)ncc3c2=O)c1 [Compound 275]
11 to 100	< 10	O=C(NCC1CCOCC1)c1cc(F)cc(Cn2ccc3cc(-c4c[nH]nc4C(F)F)ncc3c2=O)c1 [Compound 276]
11 to 100	< 10	[2H]C([2H])([2H])NC(=O)c1cccc(Cn2ccc3cc(-c4cn[nH]c4C(F)(F)F)ccc3c2=O)c1 [Compound 278]
11 to 100	< 10	CNC(=O)c1cccc(C(C)n2ccc3cc(-c4cn[nH]c4C(F)(F)F)ccc3c2=O)c1 (centres unmarked) [Compound 279]
11 to 100	< 10	[2H]C([2H])([2H])NC(=O)c1cc(F)cc(Cn2ccc3cc(-c4cn[nH]c4C(F)(F)F)ccc3c2=O)c1 [Compound 282]
11 to 100	< 10	CNC(=O)c1cc(F)cc(C(C)n2ccc3cc(-c4cn[nH]c4C(F)(F)F)ccc3c2=O)c1 (centres unmarked) [Compound 283]
101 to 500	10 to 100	CNC(=O)c1cc(Cn2ccc3cc(-c4cn[nH]c4C(F)(F)F)ccc3c2=O)ccc1F [Compound 284]
101 to 500	10 to 100	CNC(=O)c1cc(Cl)cc(Cn2ccc3cc(-c4cn[nH]c4C(F)(F)F)ccc3c2=O)c1 [Compound 285]
11 to 100	< 10	CNC(=O)c1cccc(Cn2ccc3cc(-c4cn[nH]c4C(F)F)ccc3c2=O)c1 [Compound 286]
11 to 100	< 10	CNC(=O)c1cccc(C(C)n2ccc3cc(-c4cn[nH]c4C(F)F)ccc3c2=O)c1 (centres unmarked) [Compound 287]
11 to 100	< 10	[2H]C([2H])([2H])NC(=O)c1cccc(C(C)n2ccc3cc(-c4cn[nH]c4C(F)F)ccc3c2=O)c1 (centres unmarked) [Compound 288]
11 to 100	< 10	CNC(=O)c1cc(F)cc(Cn2ccc3cc(-c4cn[nH]c4C(F)F)ccc3c2=O)c1 [Compound 289]

IC50 [1] [nM]	IC50 [2] [nM]	SMILES
11 to 100	< 10	CNC(=O)c1cccc(Cn2ccc3cc(-c4cn[nH]c4Cl)ccc3c2=O)c1 [Compound 290]
11 to 100	< 10	[2H]C([2H])([2H])NC(=O)c1cccc(Cn2ccc3cc(-c4cn[nH]c4Cl)ccc3c2=O)c1 [Compound 291]
11 to 100	< 10	CNC(=O)c1cccc(C(C)n2ccc3cc(-c4cn[nH]c4Cl)ccc3c2=O)c1 (centres unmarked) [Compound 292]
11 to 100	< 10	CNC(=O)c1cc(F)cc(Cn2ccc3cc(-c4cn[nH]c4Cl)ccc3c2=O)c1 [Compound 293]
11 to 100	< 10	CNC(=O)c1cc(F)cc(C(C)n2ccc3cc(-c4cn[nH]c4Cl)ccc3c2=O)c1 (centres unmarked) [Compound 294]
11 to 100	< 10	[2H]C([2H])([2H])NC(=O)c1cccc(Cn2ccc3cc(-c4cn[nH]c4F)ccc3c2=O)c1 [Compound 296]
11 to 100	< 10	CNC(=O)c1cccc(Cn2ccc3cc(-c4cn[nH]c4F)ccc3c2=O)c1 [Compound 297]
11 to 100	< 10	CNC(=O)c1cc(F)cc(C(C)n2ccc3cc(-c4cn[nH]c4F)ccc3c2=O)c1 (centres unmarked) [Compound 298]
> 501	> 500	CNC(=O)c1cccc(Cn2ccc3cc(-c4cnn(C)c4)ccc3c2=O)c1 [Compound 299]
> 501	> 500	CNC(=O)c1cccc(Cn2ccc3cc(-c4cnoc4)ccc3c2=O)c1 [Compound 300]
> 501	> 500	CNC(=O)c1cccc(Cn2ccc3cc(-c4cnoc4C)ccc3c2=O)c1 [Compound 301]
> 501	> 500	CNC(=O)c1cccc(Cn2ccc3cc(-c4ccoc4)ccc3c2=O)c1 [Compound 302]
> 501	> 500	CNC(=O)c1cccc(Cn2ccc3cc(-c4ccoc4C)ccc3c2=O)c1 [Compound 303]
> 501	> 500	CNC(=O)c1cccc(Cn2ccc3cc(C4=CCOC4)ccc3c2=O)c1 [Compound 304]
101 to 500	100 to 500	CNC(=O)c1cccc(Cn2ccc3cc(-c4cc[nH]c4)ccc3c2=O)c1 [Compound 305]
101 to 500	100 to 500	CNC(=O)c1cccc(Cn2ccc3cc(-c4cc[nH]c4C)ccc3c2=O)c1 [Compound 306]
11 to 100	< 10	[2H]C([2H])([2H])NC(=O)c1cccc(Cn2ccc3cc(-c4conc4C)ccc3c2=O)c1 [Compound 307]
< 10	< 10	CNC(=O)c1cccc(Cn2ccc3cc(-c4cn[nH]c4)ccc3c2=O)c1 [Compound 308]
11 to 100	< 10	CNC(=O)c1cccc(C(C)n2ccc3cc(-c4conc4C)ccc3c2=O)c1 (centres unmarked) [Compound 309]
